26 compounds from PubChem BioAssay AID747 (Structural Genomics Consortium, 2007) can be followed below.

Chain of Sulfotransferase 1E1 (Homo sapiens) (P49888 whole entry, looked up): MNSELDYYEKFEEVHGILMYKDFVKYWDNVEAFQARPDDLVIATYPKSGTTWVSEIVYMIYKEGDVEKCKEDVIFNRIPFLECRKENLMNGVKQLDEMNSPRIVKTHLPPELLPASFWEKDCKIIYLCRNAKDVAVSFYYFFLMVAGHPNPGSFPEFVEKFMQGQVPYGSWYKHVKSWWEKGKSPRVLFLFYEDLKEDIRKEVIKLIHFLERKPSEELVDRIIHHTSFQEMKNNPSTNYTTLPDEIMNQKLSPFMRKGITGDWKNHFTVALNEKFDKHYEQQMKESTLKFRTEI

This assay concerns the target Sulfotransferase 1E1 (Homo sapiens) (UniProt P49888). Kind of assay: SULT1E1 thermal stabilisation by ligands, biophysical, StarGazer light scattering, human (AID 747). Particulars: purified SULT1E1, StarGazer light scattering thermal shift; at 1 mM; stronger effect = higher value.
As for `Oc1c(Cl)c(Cl)c(Cl)c(Cl)c1Cl`, the Tagg shift came out at 0 °C.

Turning to `Cc1ccc(O)cc1`, the Tagg shift worked out at 0 °C.

As for `CNCC(O)c1ccc(O)c(O)c1` (stereo unspecified), the Tagg shift is 0 °C.

As to `Cc1ncc(COP(=O)(O)O)c(C=O)c1O`, the Tagg shift amounted to 3.95 °C.

Consider `NC(Cc1cc(I)c(Oc2ccc(O)c(I)c2)c(I)c1)C(=O)O` (stereo unspecified), for which the Tagg shift worked out at 2.6 °C.

In the case of `NC[C@H](O)c1ccc(O)c(O)c1`, the Tagg shift came out at 0 °C.

Consider `Oc1cccc2ccccc12`, for which the Tagg shift is 0 °C.

Consider `Oc1ccc(/C=C/c2cc(O)cc(O)c2)cc1`, for which the Tagg shift came out at 2.25 °C.

Take `Nc1ccc(O)cc1`: the Tagg shift worked out at 0 °C.

As for `O=[N+]([O-])c1cc(Cl)c(O)c(Cl)c1`, the Tagg shift was 1.4 °C.

For `COC(=O)CCC(C)C1CCC2C3CCC4CC(O)CCC4(C)C3CCC12C` (stereo unspecified), the Tagg shift stood at 1.2 °C.

`C[C@H]1CCC[C@H](O)CCC/C=C/c2cc(O)cc(O)c2C(=O)O1`: the Tagg shift was determined as 1.3 °C.

For `O=c1c(O)c(-c2ccc(O)c(O)c2)oc2cc(O)cc(O)c12`, the Tagg shift amounted to 1.95 °C.

For `COc1cc(C=O)ccc1O`, the Tagg shift is 0 °C.

For the compound `CCCc1ccccc1O`, the Tagg shift stood at 0 °C.

As to `Cc1cccc(Nc2ccccc2C(=O)O)c1C`, the Tagg shift came out at 2.35 °C.

Consider `CCC(C)c1ccccc1O` (stereo unspecified), for which the Tagg shift turned out to be 0 °C.

For the compound `C[C@]12CC[C@@H]3c4ccc(O)cc4CC[C@H]3[C@@H]1CCC2=O`, the Tagg shift amounted to 1.1 °C.

As for `C[C@]12CC[C@@H]3c4cc(O)c(O)cc4CC[C@H]3[C@@H]1CC[C@@H]2O`, the Tagg shift is 1.55 °C.

As to `NCCc1ccc(O)c(O)c1`, the Tagg shift came out at 0 °C.

`CN1CCc2cccc3c2C1Cc1ccc(O)c(O)c1-3` (stereo unspecified): the Tagg shift is 0 °C.

`CCc1ccccc1O`: the Tagg shift came to 0 °C.

`O=C(O)c1ccccc1O`: the Tagg shift was found to be 0 °C.

In the case of `CC(C)NCC(O)c1ccc(O)c(O)c1` (stereo unspecified), the Tagg shift is 0 °C.

`Oc1ccc2ccccc2c1`: the Tagg shift came to 0 °C.

For the compound `C[C@]12CC[C@H](OS(=O)(=O)O)CC1=CC[C@@H]1[C@@H]2CC[C@]2(C)C(=O)CC[C@@H]12`, the Tagg shift was 1.1 °C.
